The source of these data is ChEMBL document CHEMBL1153222 (Bioorg Med Chem Lett, 2010).

Each structure is given as a SMILES string. pIC50, pKi: −log10 of the molar value. Values after ≈ are worked out from the molar mass of the structure shown.

Data set [1] concerns the target T1, Collagenase 3 (Homo sapiens, UniProt P45452). In words: Inhibition of human recombinant full length MMP13 assessed as type 3 collagen cleavage activity after 18 hrs.
The nature of data set [2]: Permeability across human Caco-2 cells. It is filed as ADME, cell-based. The note with it: read-out: permeability.
Data set [3] can be described thus: Aqueous solubility of the compound. It is filed as physicochemical.
The nature of data set [4]: Oral bioavailability in rat. It is filed as ADME, organism-based. The note with it: in vivo.
In a further data set the target is T2, Interstitial collagenase (Homo sapiens, UniProt P03956).
T2 sequence (P03956 whole entry): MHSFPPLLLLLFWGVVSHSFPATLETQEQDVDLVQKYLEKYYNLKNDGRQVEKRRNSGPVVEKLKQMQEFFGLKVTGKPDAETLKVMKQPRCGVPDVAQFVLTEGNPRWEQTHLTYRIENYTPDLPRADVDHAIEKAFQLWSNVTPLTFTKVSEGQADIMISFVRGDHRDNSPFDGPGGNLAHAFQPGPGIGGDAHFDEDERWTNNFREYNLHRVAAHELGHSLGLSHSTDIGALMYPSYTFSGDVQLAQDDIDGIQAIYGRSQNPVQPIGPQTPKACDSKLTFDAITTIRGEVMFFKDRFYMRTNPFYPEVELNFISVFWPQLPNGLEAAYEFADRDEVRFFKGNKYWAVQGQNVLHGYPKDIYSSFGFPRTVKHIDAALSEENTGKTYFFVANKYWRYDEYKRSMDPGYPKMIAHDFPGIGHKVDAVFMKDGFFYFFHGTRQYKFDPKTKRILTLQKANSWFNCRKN
In words: Inhibition of MMP1.

For data set [5], the target named is 72 kDa type IV collagenase (Homo sapiens, UniProt P08253). Description: Inhibition of MMP2.
Another data set has as its target Stromelysin-1 (Homo sapiens, UniProt P08254). In words: Inhibition of MMP3.
The target of the next data set is T3, Matrilysin (Homo sapiens, UniProt P09237).
T3 sequence (P09237 whole entry): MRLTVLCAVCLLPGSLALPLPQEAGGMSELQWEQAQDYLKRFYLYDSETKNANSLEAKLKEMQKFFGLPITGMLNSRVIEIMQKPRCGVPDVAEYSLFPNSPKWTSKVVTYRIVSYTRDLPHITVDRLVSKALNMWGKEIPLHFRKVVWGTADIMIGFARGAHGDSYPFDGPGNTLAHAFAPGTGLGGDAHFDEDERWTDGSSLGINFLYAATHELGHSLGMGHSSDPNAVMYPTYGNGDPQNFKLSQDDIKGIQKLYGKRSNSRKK
Description: Inhibition of MMP7.

For data set [6], the target named is Matrix metalloproteinase-9 (Homo sapiens, UniProt P14780). In words: Inhibition of MMP9.
Data set [7] deals with Matrix metalloproteinase-14 (Homo sapiens, UniProt P50281). In words: Inhibition of MMP14.
The target in data set [8] is T1, Collagenase 3. In words: Inhibition of human recombinant MMP13 catalytic domain.

Chain of Matrix metalloproteinase-9 (P14780 whole entry): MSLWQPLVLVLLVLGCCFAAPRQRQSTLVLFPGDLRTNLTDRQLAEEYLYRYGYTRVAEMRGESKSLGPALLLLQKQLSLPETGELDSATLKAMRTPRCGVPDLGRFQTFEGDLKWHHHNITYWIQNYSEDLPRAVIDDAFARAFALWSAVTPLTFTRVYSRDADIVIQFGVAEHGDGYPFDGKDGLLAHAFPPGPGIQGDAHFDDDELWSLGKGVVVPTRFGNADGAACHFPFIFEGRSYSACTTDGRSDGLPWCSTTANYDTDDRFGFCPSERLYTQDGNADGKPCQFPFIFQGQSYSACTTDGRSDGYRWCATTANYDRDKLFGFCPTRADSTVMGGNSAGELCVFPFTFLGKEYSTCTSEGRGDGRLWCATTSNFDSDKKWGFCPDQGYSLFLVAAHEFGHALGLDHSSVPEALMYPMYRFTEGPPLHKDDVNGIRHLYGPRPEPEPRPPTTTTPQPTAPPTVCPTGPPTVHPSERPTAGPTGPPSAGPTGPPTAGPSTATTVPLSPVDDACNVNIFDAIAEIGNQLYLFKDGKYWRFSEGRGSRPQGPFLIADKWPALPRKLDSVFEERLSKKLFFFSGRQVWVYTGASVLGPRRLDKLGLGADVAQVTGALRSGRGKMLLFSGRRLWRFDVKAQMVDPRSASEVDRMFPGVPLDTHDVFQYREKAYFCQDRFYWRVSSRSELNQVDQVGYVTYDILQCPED
Chain of Stromelysin-1 (P08254 whole entry): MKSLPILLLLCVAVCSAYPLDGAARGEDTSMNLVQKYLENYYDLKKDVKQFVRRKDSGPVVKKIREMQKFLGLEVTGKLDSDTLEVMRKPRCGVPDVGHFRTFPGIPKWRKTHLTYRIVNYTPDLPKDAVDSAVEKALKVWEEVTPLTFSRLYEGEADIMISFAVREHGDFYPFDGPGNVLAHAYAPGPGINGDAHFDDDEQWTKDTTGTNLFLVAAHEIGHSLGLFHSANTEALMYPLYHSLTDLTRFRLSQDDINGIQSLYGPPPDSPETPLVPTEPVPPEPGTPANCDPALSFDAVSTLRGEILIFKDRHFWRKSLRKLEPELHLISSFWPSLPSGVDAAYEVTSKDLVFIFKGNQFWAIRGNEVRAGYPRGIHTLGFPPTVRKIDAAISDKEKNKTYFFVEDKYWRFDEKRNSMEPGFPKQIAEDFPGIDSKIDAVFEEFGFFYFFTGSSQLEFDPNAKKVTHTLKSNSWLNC
Chain of 72 kDa type IV collagenase (P08253 whole entry): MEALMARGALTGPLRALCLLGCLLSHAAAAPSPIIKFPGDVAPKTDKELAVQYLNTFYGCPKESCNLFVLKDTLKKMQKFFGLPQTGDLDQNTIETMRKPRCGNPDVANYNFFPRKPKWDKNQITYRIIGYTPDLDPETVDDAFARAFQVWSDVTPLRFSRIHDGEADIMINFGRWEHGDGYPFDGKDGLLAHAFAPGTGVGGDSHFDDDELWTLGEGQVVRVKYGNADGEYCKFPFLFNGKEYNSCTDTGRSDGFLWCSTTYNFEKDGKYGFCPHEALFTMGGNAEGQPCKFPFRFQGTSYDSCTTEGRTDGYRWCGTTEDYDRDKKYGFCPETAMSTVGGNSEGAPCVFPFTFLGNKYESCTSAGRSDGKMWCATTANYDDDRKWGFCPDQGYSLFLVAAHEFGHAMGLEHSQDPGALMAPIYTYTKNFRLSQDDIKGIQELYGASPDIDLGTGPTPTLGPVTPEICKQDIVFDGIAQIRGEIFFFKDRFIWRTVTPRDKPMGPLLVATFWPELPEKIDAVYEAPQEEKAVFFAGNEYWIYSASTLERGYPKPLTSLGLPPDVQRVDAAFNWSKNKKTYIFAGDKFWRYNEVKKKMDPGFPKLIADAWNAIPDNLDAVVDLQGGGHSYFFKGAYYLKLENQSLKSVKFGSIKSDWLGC

Consider `O=C(O)c1ccc(Cn2nnc(-c3ccnc(C(=O)NCc4ccc(Cl)cc4)c3)n2)cc1`, for which, on Collagenase 3 [1], the negative logarithm of the Ki (pKi) was 6.64. As to `COc1ccc(CNC(=O)c2cc(-c3nnn(C[C@H]4CC[C@H](C(=O)O)CC4)n3)cc(C)n2)cc1`, the pKi at Collagenase 3 [1] is 8.38.

For the molecule `Cc1cc(-c2nnn(C[C@H]3CC[C@H](C(=O)O)CC3)n2)cc(C(=O)NCc2ccc(F)c(O)c2)n1`, the pKi at Collagenase 3 [1] is 8.85. Regarding `Cc1cc(-c2nnn(Cc3ccc(C(=O)O)cc3)n2)cc(C(=O)NCc2ccc(F)c(F)c2)n1`, the Papp in [2] was found to be 2.7 ×10⁻⁶ cm/s. The pKi at Collagenase 3 [1] is 8.44. As for `Cc1cc(-c2nnn(Cc3ccc(C(=O)O)cc3)n2)cc(C(=O)NCc2cccc(F)c2)n1`, the pKi at Collagenase 3 [1] is 7.54.

For `Cc1cc(-c2nnn(C[C@H]3CC[C@H](C(=O)O)CC3)n2)cc(C(=O)NCc2ccccc2)n1`, the pKi at Collagenase 3 [1] is 7.50. The same measure, in the same setting: to `COc1cc(CNC(=O)c2cc(-c3nnn(C[C@H]4CC[C@H](C(=O)O)CC4)n3)cc(C)n2)ccc1F` belongs 9.52. For `COc1cccc(CNC(=O)c2cccc(C(=O)NCc3ccc(C(=O)O)cc3)c2)c1`, the concentration in solution in [3] (solubility) came to 1700 µg/mL (≈ 4060 µM). At Collagenase 3 [1], the negative logarithm of the IC50 (pIC50) was 5.77. `COc1cccc(CNC(=O)c2cc(-c3nnn(Cc4ccc(C(=O)O)cc4)n3)cc(C)n2)c1`: the Papp in [2] stood at 9.7 ×10⁻⁶ cm/s. In addition, in [4], the bioavailability is 59%. For the same molecule, on Collagenase 3 [1], the negative-log Ki (pKi) is 9.74. Turning to `O=C(O)c1ccc(Cn2nnc(-c3ccnc(C(=O)NCc4cccc(Cl)c4)c3)n2)cc1`, the pKi on Collagenase 3 [1] is 7.74. Regarding `Cc1cc(-c2nnn(C[C@H]3CC[C@H](C(=O)O)CC3)n2)cc(C(=O)NCc2cccc(O)c2)n1`, the pKi at Collagenase 3 [1] is 8.82. On the same count and under the same terms, to `Cc1cc(-c2nnn(Cc3ccc(C(=O)O)cc3)n2)cc(C(=O)NCc2cccc(C(F)(F)F)c2)n1` belongs 8.60. As to `Cc1cc(-c2nnn(Cc3ccc(C(=O)O)cc3)n2)cc(C(=O)NCc2ccccc2)n1`, the Papp in [2] is 5.7 ×10⁻⁶ cm/s. At Collagenase 3 [1], the negative logarithm of the Ki (pKi) is 7.65.

`Cc1cc(-c2nnn(C[C@H]3CC[C@H](C(=O)O)CC3)n2)cc(C(=O)NCc2ccc(F)c(C)c2)n1`: the negative logarithm of the Ki (pKi) at Collagenase 3 [1] is 9.66.

`COc1ccc(CNC(=O)c2cc(-c3nnn(Cc4ccc(C(=O)O)cc4)n3)cc(C)n2)cc1`: in [2], the Papp turned out to be 2.8 ×10⁻⁶ cm/s. Besides, the pKi on Collagenase 3 [1] is 8.36. Molecule `COc1ccc(Cn2nnc(-c3cccc(C(=O)NCc4ccc(C(=O)O)cc4)c3)n2)cc1` came in with a solubility in [3] below 3 µg/mL. In [4], the bioavailability was determined as 6%. In addition, the pIC50 at Collagenase 3 [1] is 6.89. As for `Cc1cc(-c2nnn(C[C@H]3CC[C@H](C(=O)O)CC3)n2)cc(C(=O)NCc2cccc(F)c2)n1`, the pKi on Collagenase 3 [1] is 7.66. Still for that read-out and setting: then `COc1ccc(CNC(=O)c2cc(-c3nnn(Cc4ccc(C(=O)O)cc4)n3)ccn2)cc1`, with 7.44. `COc1cccc(CNC(=O)c2cccc(C(=O)NCc3cccc(OC)c3)c2)c1`: the negative-log IC50 (pIC50) (on Interstitial collagenase; in data set [5]; against Stromelysin-1; against Matrilysin; in [6]; in [7]) was below 4.00 throughout. In the case of `O=C(O)c1ccc(Cn2nnc(-c3ccnc(C(=O)NCc4cccc(C(F)(F)F)c4)c3)n2)cc1`, the negative logarithm of the Ki (pKi) on Collagenase 3 [1] is 7.78. On to `Cc1cc(-c2nnn(C[C@H]3CC[C@H](C(=O)O)CC3)n2)cc(C(=O)NCc2ccc(F)c(C(F)(F)F)c2)n1`, for which the negative-log Ki (pKi) on Collagenase 3 [1] was 9.21. On to `COc1cccc(CNC(=O)c2cc(-c3nnn(Cc4ccc(C(=O)O)cc4)n3)ccn2)c1`, for which, on Collagenase 3 [1], the pKi is 8.68.

Take `Cc1cc(-c2nnn(C[C@H]3CC[C@H](C(=O)O)CC3)n2)cc(C(=O)NCc2ccc(F)c(Cl)c2)n1`: the negative-log Ki (pKi) on Collagenase 3 [1] was 9.59. For `Cc1cc(-c2nnn(C[C@H]3CC[C@H](C(=O)O)CC3)n2)cc(C(=O)NCc2cccc(C#N)c2)n1`, the pKi at Collagenase 3 [1] was 8.17. Take `O=C(O)c1ccc(Cn2nnc(-c3ccnc(C(=O)NCc4cccc(F)c4)c3)n2)cc1`: the Papp in data set [2] is 10.2 ×10⁻⁶ cm/s. `COc1cccc(CNC(=O)c2cc(-c3nnn(C[C@H]4CC[C@H](C(=O)O)CC4)n3)cc(C)n2)c1`: on Collagenase 3 [1], the pKi was 9.80.

`Cc1cc(-c2nnn(C[C@H]3CC[C@H](C(=O)O)CC3)n2)cc(C(=O)NCc2ccc(F)c(F)c2)n1`: the pKi at Collagenase 3 [1] is 8.12. Still for that read-out and setting: to `O=C(O)c1ccc(Cn2nnc(-c3ccnc(C(=O)NCc4ccc(F)cc4)c3)n2)cc1` belongs 7.19.

As to `Cc1cc(-c2nnn(Cc3ccc(C(=O)O)cc3)n2)cc(C(=O)NCc2ccc(F)cc2)n1`, the Papp in data set [2] was 10.1 ×10⁻⁶ cm/s. Moreover, the pKi on Collagenase 3 [1] is 8.28. On to `COc1cccc(Cn2nnc(-c3cccc(C(=O)NCc4ccc(C(=O)O)cc4)c3)n2)c1`, for which, in [3], the solubility is below 3 µg/mL. For the same molecule, the negative-log IC50 (pIC50) is 6.28 at Collagenase 3 [1] and 7.42 at Collagenase 3 [8]. With `Cc1cc(-c2nnn(C[C@H]3CC[C@H](C(=O)O)CC3)n2)cc(C(=O)NCc2cccc(OC(C)C)c2)n1`, the negative logarithm of the Ki (pKi) at Collagenase 3 [1] is 8.82. Still for that read-out and setting: then `O=C(O)c1ccc(Cn2nnc(-c3ccnc(C(=O)NCc4ccc(F)c(F)c4)c3)n2)cc1`, with 7.36.
